According to PubChem BioAssay (NCI):
Several values for one entry are separate records, joined by “and”; a condition that tells them apart may be missing. Equal values may be shown once.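 Step 1: Grow cells in 96-well plates. Step 2: Expose to compound for 48 hours at 5 concentrations. Step 3: Interpolate endpoints linearly; if unreached, use highest concentration. GI50 = concentration required for 50% inhibition of growth. At the TGI there is no net growth.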

How the values were obtained:
Assay in all cases: DTP human tumour cell line panel, 48 h
HCT-116 colon = system: HCT-116 colon
OVCAR-3 ovarian = system: OVCAR-3 ovarian
UO-31 renal = system: UO-31 renal
SF-268 CNS = system: SF-268 CNS
SW-620 colon = system: SW-620 colon
LOX IMVI melanoma = system: LOX IMVI melanoma
SR leukemia = system: SR leukemia
ACHN renal = system: ACHN renal
UACC-62 melanoma = system: UACC-62 melanoma
DU-145 prostate = system: DU-145 prostate

## O=C1N(c2ccc(Cl)cc2)C(=O)C2(SC=NN2Cc2ccccc2)N1c1ccc(Cl)cc1 (centres undefined)
HCT-116 colon
  TGI: > 100 µM
OVCAR-3 ovarian
  TGI: > 100 µM
UO-31 renal
  TGI: > 100 µM
SF-268 CNS
  TGI: > 100 µM
SW-620 colon
  TGI: > 100 µM
LOX IMVI melanoma
  TGI: > 100 µM
SR leukemia
  TGI: > 100 µM
ACHN renal
  TGI: > 100 µM
UACC-62 melanoma
  TGI: > 100 µM

## O=C(NCCN1CCOCC1)c1cc2c(Oc3ccc(NC(=O)C4(C(=O)Nc5ccc(F)cc5)CC4)cc3)ccnc2[nH]1
HCT-116 colon
  GI50: 8.78 µM
  TGI: > 100 µM
OVCAR-3 ovarian
  GI50: 19 µM
  TGI: > 85.7 µM
UO-31 renal
  GI50: 1.15 µM
  TGI: > 32.9 µM
SF-268 CNS
  GI50: 6.4 µM
  TGI: > 100 µM
SW-620 colon
  GI50: 15.3 µM
  TGI: > 100 µM
LOX IMVI melanoma
  GI50: 2.05 µM
  TGI: 39.6 µM
ACHN renal
  GI50: 7.84 µM
  TGI: > 100 µM
UACC-62 melanoma
  GI50: 4.26 µM
  TGI: 22.7 µM
DU-145 prostate
  GI50: 10.6 µM
  TGI: > 100 µM

## CN(C)NC(=O)NC12CC3CC(CC(C3)C1)C2
HCT-116 colon
  TGI: > 100 µM
UO-31 renal
  TGI: > 100 µM
SF-268 CNS
  TGI: > 100 µM
SW-620 colon
  TGI: > 100 µM
LOX IMVI melanoma
  TGI: > 100 µM
SR leukemia
  TGI: > 100 µM
ACHN renal
  TGI: > 100 µM
UACC-62 melanoma
  TGI: > 100 µM

## N#Cc1sc2nc3c(c(-c4ccccc4)c2c1N)CCCC3
HCT-116 colon
  TGI: > 100 µM
UO-31 renal
  TGI: > 100 µM
SW-620 colon
  TGI: > 100 µM
LOX IMVI melanoma
  TGI: > 100 µM
SR leukemia
  TGI: > 100 µM
ACHN renal
  TGI: > 100 µM
UACC-62 melanoma
  TGI: > 100 µM

## CCNC(=O)O/N=C1\CCC2[C@@H]3CC=C4C[C@@H](OC(=O)NCC)CC[C@]4(C)C3CC[C@]12C (some centres undefined)
HCT-116 colon
  TGI: 13.7 µM
OVCAR-3 ovarian
  TGI: 12.6 µM
UO-31 renal
  TGI: 2.62 µM
SF-268 CNS
  TGI: 13 µM
SW-620 colon
  TGI: 16.7 µM
LOX IMVI melanoma
  TGI: 4.64 µM
ACHN renal
  TGI: 4.96 µM
UACC-62 melanoma
  TGI: 10.2 µM

## Nc1ncc(CN2CCCC2)c(-c2ccccc2O)n1
HCT-116 colon
  TGI: > 750 µM
OVCAR-3 ovarian
  TGI: > 750 µM
UO-31 renal
  TGI: > 750 µM
SF-268 CNS
  TGI: > 750 µM
SW-620 colon
  TGI: > 750 µM
LOX IMVI melanoma
  TGI: > 750 µM
SR leukemia
  TGI: > 750 µM
ACHN renal
  TGI: > 750 µM
UACC-62 melanoma
  TGI: > 750 µM

## COc1cc2c3c(c4cc(OC)c(OC)cc4c2cc1OC)CN1CCC[C@H]1C3
HCT-116 colon
  TGI: 1.75 µM and 1.04 µM
OVCAR-3 ovarian
  TGI: 0.379 µM and 1.15 µM
UO-31 renal
  TGI: 1.66 µM and 1 µM
SF-268 CNS
  GI50: 0.0142 µM
SW-620 colon
  GI50: 0.0734 µM and < 0.0124 µM
LOX IMVI melanoma
  TGI: 0.245 µM and 1.46 µM
SR leukemia
  GI50: 0.0667 µM and 0.0102 µM
ACHN renal
  TGI: 2.37 µM and 0.393 µM
DU-145 prostate
  GI50: 0.0205 µM
  TGI: 0.187 µM

## C=C(CN1CCN(c2cc(C(F)(F)F)cc(C(F)(F)F)c2)CC1)c1ccc(C(=O)Nc2ccccc2N)cc1
HCT-116 colon
  GI50: 3.67 µM
  TGI: > 100 µM
OVCAR-3 ovarian
  GI50: 3.18 µM
  TGI: 21.2 µM
UO-31 renal
  GI50: 5.57 µM
  TGI: > 100 µM
SF-268 CNS
  GI50: 8.12 µM
  TGI: > 100 µM
SW-620 colon
  GI50: 6.95 µM
  TGI: 34.9 µM
LOX IMVI melanoma
  GI50: 2.34 µM
  TGI: > 100 µM
ACHN renal
  GI50: 5.81 µM
  TGI: > 100 µM
UACC-62 melanoma
  GI50: 4.21 µM
  TGI: > 100 µM
DU-145 prostate
  GI50: 5.4 µM
  TGI: > 100 µM

## CC(=O)O[C@H]1CSC[C@@H](OC(C)=O)C1[N+](=O)[O-] (some centres undefined)
HCT-116 colon
  TGI: > 100 µM
OVCAR-3 ovarian
  TGI: 55.3 µM
SF-268 CNS
  TGI: > 100 µM
SW-620 colon
  TGI: 74.3 µM
ACHN renal
  TGI: > 100 µM
UACC-62 melanoma
  TGI: > 100 µM

## NC1(C(=O)O)CCC(C(=O)O)CC1 (centres undefined)
HCT-116 colon
  TGI: > 100 µM
OVCAR-3 ovarian
  TGI: > 100 µM
UO-31 renal
  TGI: > 100 µM
SF-268 CNS
  TGI: > 100 µM
SW-620 colon
  TGI: > 100 µM
LOX IMVI melanoma
  TGI: > 100 µM
SR leukemia
  TGI: > 100 µM
ACHN renal
  TGI: > 100 µM
UACC-62 melanoma
  TGI: > 100 µM

## CSCSCC(CO)NC(=O)/C=C/c1c(C)[nH]c(=O)[nH]c1=O (centres undefined)
HCT-116 colon
  TGI: > 100 µM
OVCAR-3 ovarian
  TGI: > 100 µM
UO-31 renal
  TGI: > 100 µM
SF-268 CNS
  TGI: > 100 µM
SW-620 colon
  TGI: > 100 µM
LOX IMVI melanoma
  TGI: > 100 µM
SR leukemia
  TGI: > 100 µM
ACHN renal
  TGI: > 100 µM
UACC-62 melanoma
  TGI: > 100 µM

## CC(=O)OC1(C(C)=O)CC2(c3ccccc3)OC1(c1ccccc1)c1ccccc12 (centres undefined)
HCT-116 colon
  TGI: > 100 µM
OVCAR-3 ovarian
  TGI: > 100 µM
UO-31 renal
  TGI: 80.1 µM
SF-268 CNS
  TGI: > 100 µM
SW-620 colon
  TGI: > 100 µM
LOX IMVI melanoma
  TGI: > 100 µM
SR leukemia
  TGI: > 100 µM
ACHN renal
  TGI: > 100 µM
UACC-62 melanoma
  TGI: 43.8 µM

## CC1=C(C(=S)Nc2ccc(Cl)c(C(=O)OC(C)C)c2)SCCO1
HCT-116 colon
  TGI: 28.6 µM
OVCAR-3 ovarian
  TGI: 52.7 µM
UO-31 renal
  TGI: 32.8 µM
SF-268 CNS
  TGI: 60.8 µM
SW-620 colon
  TGI: 44.7 µM
LOX IMVI melanoma
  TGI: 28.8 µM
ACHN renal
  TGI: 85.9 µM
UACC-62 melanoma
  TGI: 32.6 µM
DU-145 prostate
  TGI: 57.1 µM

## O=C(CC1(O)C(=O)Nc2ccc(Cl)cc21)c1ccc(C(=O)NCC2CCC3(CC2)OOC2(CCCCC2)OO3)cc1 (centres undefined)
HCT-116 colon
  GI50: 2.71 µM
  TGI: 12.3 µM
SF-268 CNS
  GI50: 2.94 µM
  TGI: 12.9 µM
SW-620 colon
  GI50: 2.13 µM
  TGI: 4.61 µM
LOX IMVI melanoma
  GI50: 0.301 µM
  TGI: 8.85 µM
UACC-62 melanoma
  GI50: 5.05 µM
  TGI: 27.6 µM
DU-145 prostate
  GI50: 2 µM
  TGI: 6.49 µM

## C=C1C(C)C2C(Cc3ccccc3)NC(=O)C23C(OC(C)=O)C=CC(C)(O)C(=O)C(C)C/C=C/C3C1O (centres undefined)
HCT-116 colon
  GI50: 1.04 µM
  TGI: > 500 µM
OVCAR-3 ovarian
  TGI: > 500 µM
UO-31 renal
  TGI: 1.62 µM and 14.3 µM
SF-268 CNS
  GI50: 0.698 µM
SW-620 colon
  GI50: > 500 µM
  TGI: > 500 µM
SR leukemia
  TGI: > 289 µM
ACHN renal
  GI50: 1.28 µM
  TGI: > 196 µM
UACC-62 melanoma
  GI50: 29.4 µM
  TGI: > 285 µM
DU-145 prostate
  GI50: 19.1 µM
  TGI: > 500 µM

## CCOC(=O)C(Oc1ccc(OC)c2c1C(=O)CCC2)c1ccccc1 (centres undefined)
HCT-116 colon
  TGI: > 100 µM
OVCAR-3 ovarian
  TGI: > 100 µM
UO-31 renal
  TGI: > 100 µM
SF-268 CNS
  TGI: > 100 µM
SW-620 colon
  TGI: > 100 µM
LOX IMVI melanoma
  TGI: > 100 µM
ACHN renal
  TGI: > 100 µM
UACC-62 melanoma
  TGI: > 100 µM

## CN(C(=O)C12C3C4C1C1C2C3C41C#N)C(C)(C)C (centres undefined)
HCT-116 colon
  TGI: > 100 µM
OVCAR-3 ovarian
  TGI: > 100 µM
UO-31 renal
  TGI: > 100 µM
SF-268 CNS
  TGI: > 100 µM
SW-620 colon
  TGI: > 100 µM
LOX IMVI melanoma
  TGI: > 100 µM
ACHN renal
  TGI: > 100 µM
UACC-62 melanoma
  TGI: > 100 µM

## COc1cc2c(c3oc4c(O)cccc4c(=O)c13)CC(C(C)(O)CCl)O2 (centres undefined)
HCT-116 colon
  TGI: 2.53 µM
OVCAR-3 ovarian
  TGI: 7.43 µM
UO-31 renal
  TGI: 4.9 µM
SF-268 CNS
  TGI: 3.33 µM
SW-620 colon
  TGI: 3.74 µM
LOX IMVI melanoma
  TGI: 0.026 µM
ACHN renal
  TGI: 1.87 µM
UACC-62 melanoma
  TGI: 2.3 µM
DU-145 prostate
  TGI: 10.3 µM

## CC1=C(\C=C/C(C)=C/C=C/C(C)=C/C=C/C=C(C)\C=C\C=C(C)/C=C/C2=C(C)CCCC2(C)C)C(C)(C)CCC1
HCT-116 colon
  TGI: 71.9 µM
OVCAR-3 ovarian
  TGI: > 100 µM
UO-31 renal
  TGI: > 100 µM
SF-268 CNS
  TGI: > 100 µM
SW-620 colon
  TGI: > 100 µM
LOX IMVI melanoma
  TGI: > 100 µM
ACHN renal
  TGI: > 100 µM
UACC-62 melanoma
  TGI: > 100 µM
DU-145 prostate
  TGI: > 100 µM
